Test results from PubChem BioAssay AID2691 (Broad Institute, 2010).
Converted amounts (≈) assume the structure as drawn. Records with an inconclusive call do not appear. The source made the active and inactive calls.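 How the source made its calls: active means dose-dependent viability drop with mean lowest dose clearly under solvent controls below the top tested dose; inconclusive means self-fluorescent without titration, or replicates split around top dose; inactive means no such drop up to the top dose.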

These compounds were tested on NIH 3T3 viability, Alamar Blue fluorescence, 3 days (assay: NIH 3T3 cell viability reduction, dose response, cytotoxicity control for polyadenylation inhibitor project, Alamar Blue fluorescence, MIC (AID 2691)).

| Compound | MIC |
| --- | --- |
| N#CC1(C#N)C2=C(CCCC2)NC(c2ccccc2)C1(C#N)C#N (stereo not given) | > 25 µM (inactive) |
| Cc1ccc(C(=O)c2no[n+]([O-])c2C(=O)c2ccc(C)cc2)cc1 | 1.6 µM (≈ 0.516 µg/mL) |
| CC(=O)c1ccc(Sc2ccccc2)c([N+](=O)[O-])c1 | > 25 µM (inactive) |
| O=C(COC(=O)Cc1ccc(S(=O)(=O)N2CCOCC2)s1)NCc1ccc(Cl)cc1 | > 25 µM (inactive) |
| Cc1ccc2nc(/C(C#N)=C/c3ccc([N+](=O)[O-])o3)[nH]c2c1 | 0.8 µM (≈ 0.235 µg/mL) |
| CCN1/C(=C\C=C\c2sc3ccccc3[n+]2CC)Sc2ccccc21 | > 25 µM (inactive) |
| CCOc1cc(/C=C2\N=C(SC(C)C(N)=O)N(c3ccc(OC(F)F)cc3)C2=O)ccc1O (stereo not given) | > 25 µM (inactive) |
| N#C/C(=C/c1ccc([N+](=O)[O-])o1)c1nc2ccccc2[nH]1 | 1.6 µM (≈ 0.448 µg/mL) |
| Cc1ccc(-c2nn3c(C)nnc3s2)cc1NC(=O)CSc1ccc(Cl)cc1 | > 25 µM (inactive) |
| COc1cc(/C=C2\SC(=S)N(NC(=O)c3ccncc3)C2=O)ccc1O | > 25 µM (inactive) |
| COc1cc(/C=C2/CC/C(=C/c3ccc(O)c(OC)c3)C2=O)ccc1O | > 25 µM (inactive) |
| Nc1ncnc2c1ncn2C1OC(CO)CC1O (stereo not given) | > 25 µM (inactive) |
| O=C(Oc1c(-c2ccccc2)c(=O)n2c3c(cccc13)CC2)c1cccc([N+](=O)[O-])c1 | > 25 µM (inactive) |
| COc1cc(/C=C2\SC(=S)N(NC(=O)c3cccnc3)C2=O)ccc1O | > 25 µM (inactive) |
| Cc1ccc(Nc2c(-c3ccc(C)o3)nc3ncccn23)cc1 | > 25 µM (inactive) |
